Measured values as given in ChEMBL document CHEMBL5344472, “Discovery of Alternative Binding Poses through Fragment-Based Identification of DHODH Inhibitors” (ACS Med Chem Lett, 2024).

What was measured:
[1] = biological target: Dihydroorotate dehydrogenase (quinone), mitochondrial (Homo sapiens, UniProt Q02127); assay: Inhibition of human DHODH in MOLM-13 AML cells; assay type: cell-based
P-gp (ABCB1) = P-gp (ABCB1) (Homo sapiens, UniProt P08183); assay: Substrate activity at P-gp (unknown origin) assessed as efflux ratio; assay type: ADME; details: not told
Chain of P-gp (ABCB1) (P08183 whole entry): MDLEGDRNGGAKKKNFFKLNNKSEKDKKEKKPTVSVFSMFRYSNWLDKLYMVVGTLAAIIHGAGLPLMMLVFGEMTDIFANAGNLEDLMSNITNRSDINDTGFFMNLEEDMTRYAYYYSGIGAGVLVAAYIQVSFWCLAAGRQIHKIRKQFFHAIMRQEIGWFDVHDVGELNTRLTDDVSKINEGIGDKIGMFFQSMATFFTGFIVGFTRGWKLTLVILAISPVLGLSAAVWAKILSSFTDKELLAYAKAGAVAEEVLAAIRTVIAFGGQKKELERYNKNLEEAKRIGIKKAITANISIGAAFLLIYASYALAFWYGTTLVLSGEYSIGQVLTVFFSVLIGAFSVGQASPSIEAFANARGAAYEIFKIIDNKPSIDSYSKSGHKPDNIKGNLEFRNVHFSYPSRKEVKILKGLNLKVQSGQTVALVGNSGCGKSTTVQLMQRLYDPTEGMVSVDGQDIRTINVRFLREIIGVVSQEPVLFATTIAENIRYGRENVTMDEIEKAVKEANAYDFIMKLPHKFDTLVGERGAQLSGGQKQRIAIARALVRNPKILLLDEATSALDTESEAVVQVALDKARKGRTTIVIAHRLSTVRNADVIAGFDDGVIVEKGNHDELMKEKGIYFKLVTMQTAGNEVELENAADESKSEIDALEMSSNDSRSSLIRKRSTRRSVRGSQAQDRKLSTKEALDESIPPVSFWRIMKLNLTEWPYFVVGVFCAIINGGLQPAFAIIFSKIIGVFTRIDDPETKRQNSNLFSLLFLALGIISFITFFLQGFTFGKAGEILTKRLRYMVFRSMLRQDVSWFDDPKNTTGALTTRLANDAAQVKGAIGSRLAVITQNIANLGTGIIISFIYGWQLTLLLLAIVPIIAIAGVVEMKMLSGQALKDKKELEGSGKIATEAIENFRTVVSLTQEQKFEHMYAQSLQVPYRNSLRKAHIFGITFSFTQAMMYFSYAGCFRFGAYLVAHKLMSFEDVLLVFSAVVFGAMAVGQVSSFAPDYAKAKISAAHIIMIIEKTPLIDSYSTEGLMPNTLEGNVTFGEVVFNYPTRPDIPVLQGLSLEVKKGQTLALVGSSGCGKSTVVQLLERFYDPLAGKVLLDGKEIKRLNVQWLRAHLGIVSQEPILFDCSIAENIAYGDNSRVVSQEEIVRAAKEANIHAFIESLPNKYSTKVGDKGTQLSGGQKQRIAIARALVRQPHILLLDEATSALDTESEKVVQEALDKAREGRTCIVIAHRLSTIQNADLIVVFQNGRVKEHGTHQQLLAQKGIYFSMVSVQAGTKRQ

MOLM-13 = assay: Antiproliferative activity in human MOLM-13 AML cells assessed as reduction in cell viability incubated for 72 hrs by CellTiter-Glo assay; details: MOLM-13, 72 h
[2] = Metabolic stability in human liver microsome assessed as half life; assay type: ADME; details: liver microsomes
[3] = Metabolic stability in mouse liver microsome assessed as half life; assay type: ADME; details: liver microsomes
[4] = Oral bioavailability in C57 mouse at 10 mg/kg; assay type: ADME, organism-based; details: in vivo
[5] = Half-life in C57 mouse at 10 mg/kg, po or 2 mg/kg, iv; assay type: ADME, organism-based; details: in vivo
[6] = Volume of distribution at steady state in C57 mouse at 10 mg/kg, po or 2 mg/kg, iv; assay type: ADME, organism-based; details: in vivo
[7] = Plasma protein binding in mouse assessed as free fraction; assay type: ADME, cell-free; details: read-out: PPB
[8] = Plasma protein binding in human assessed as free fraction; assay type: ADME, cell-free; details: read-out: PPB
[9] = Clearance in iv dosed mouse assessed as hepatic blood flow; assay type: ADME, organism-based; details: in vivo
[10] = Permeability of compound in MDCK cells; assay type: ADME, cell-based, Canis lupus familiaris; details: dog, read-out: permeability
[11] = Intrinsic clearance in human liver microsomes; assay type: ADME, Microsome; details: read-out: CLH
[12] = Microsomal stability in mouse assessed as half-life; assay type: ADME, Microsome; details: microsomes
[13] = Microsomal stability in human assessed as half-life; assay type: ADME, Microsome; details: microsomes

Chain of Dihydroorotate dehydrogenase (quinone), mitochondrial (Q02127 whole entry): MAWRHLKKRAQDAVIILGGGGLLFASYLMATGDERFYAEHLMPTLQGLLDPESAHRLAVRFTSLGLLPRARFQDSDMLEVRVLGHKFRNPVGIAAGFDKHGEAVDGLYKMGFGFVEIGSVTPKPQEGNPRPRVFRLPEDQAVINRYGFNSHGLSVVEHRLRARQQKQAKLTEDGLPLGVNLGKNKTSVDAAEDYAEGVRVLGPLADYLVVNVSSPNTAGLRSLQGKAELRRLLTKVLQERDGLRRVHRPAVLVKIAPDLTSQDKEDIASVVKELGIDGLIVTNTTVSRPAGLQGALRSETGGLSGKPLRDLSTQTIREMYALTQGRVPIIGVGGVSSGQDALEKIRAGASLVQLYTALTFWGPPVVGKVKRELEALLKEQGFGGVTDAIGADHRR

Compound CCn1c(CO)nn(-c2nc(O[C@@H](C)C(F)(F)F)c(C(=O)Nc3c(F)cccc3Cl)cc2F)c1=O has an IC50 [1] of 0.24 nM and an efflux ratio (P-gp (ABCB1)) greater than 30.
For CC(=O)Nc1cc(O[C@@H](C)C(F)(F)F)c(C(=O)Nc2c(F)cccc2Cl)cc1F, the IC50 (MOLM-13) was 370 nM.
Work on CCC(CCO)C(=O)Nc1cc(O[C@@H](C)C(F)(F)F)c(C(=O)Nc2c(F)cccc2Cl)cc1F (stereo partly specified) yielded an IC50 (MOLM-13) of 206 nM.
C[C@H](Oc1cc(NC(=O)C2CC2)c(F)cc1C(=O)Nc1c(F)cccc1Cl)C(F)(F)F showed an IC50 (MOLM-13) of 55 nM.
For C[C@H](Oc1cc(NC(=O)N2C(=O)CCC2CO)c(F)cc1C(=O)Nc1c(F)cccc1Cl)C(F)(F)F (mixture of isomers), the IC50 (MOLM-13) was 0.92 nM, the half-life [2] was 62 min and the half-life [3] was 106 min. For the same compound, the bioavailability [4] was greater than 100%, the half-life [5] was 180 min and the Vdss [6] was 3.6 L/kg. The fraction unbound [7] was 0.007, the fraction unbound [8] was 0.012 and the QH [9] was ~ 20%.
For COCC1CCCN1C(=O)Nc1cc(O[C@@H](C)C(F)(F)F)c(C(=O)Nc2c(F)cccc2Cl)cc1F (stereo partly specified), the IC50 (MOLM-13) was 11 nM.
In the case of C[C@H](Oc1cc(NC(=O)N2CCC(F)(F)C2)c(F)cc1C(=O)Nc1c(F)cccc1Cl)C(F)(F)F, the IC50 (MOLM-13) is reported as 4.3 nM.
CCN(C(=O)Nc1cc(O[C@@H](C)C(F)(F)F)c(C(=O)Nc2c(F)cccc2Cl)cc1F)C1CC1 gave an IC50 (MOLM-13) of 1 nM, a half-life [2] of 50 min and a half-life [3] of 20 min.
With CCC(=O)Nc1cc(O[C@@H](C)C(F)(F)F)c(C(=O)Nc2c(F)cccc2Cl)cc1F the IC50 (MOLM-13) was 35 nM.
In the case of CCN(C)C(=O)Nc1cc(O[C@@H](C)C(F)(F)F)c(C(=O)Nc2c(F)cccc2Cl)cc1F, the IC50 (MOLM-13) is reported as 0.82 nM, the half-life [2] is reported as 21 min and the half-life [3] is reported as less than 4 min.
Work on CC/C(=C\CO)C(=O)Nc1cc(O[C@@H](C)C(F)(F)F)c(C(=O)Nc2c(F)cccc2Cl)cc1F yielded an IC50 (MOLM-13) of 64 nM.
CCN(CC)C(=O)N(C)c1cc(O[C@@H](C)C(F)(F)F)c(C(=O)Nc2c(F)cccc2Cl)cc1F showed an IC50 (MOLM-13) of 25 nM, a half-life [2] of less than 4 min and a half-life [3] of less than 4 min.
With CCn1c(CO)nn(-c2nc(O[C@@H](C)C(F)(F)F)c(C(=O)Nc3c(C)cnc(OC)c3Cl)cc2F)c1=O the efflux ratio (P-gp (ABCB1)) was greater than 30, the Papp [10] was 27 ×10⁻⁶ cm/s and the CLint scaled [11] was less than 7.7 mL/min/kg.
For C[C@H](Oc1cc(NC(=O)N2CCCC2)c(F)cc1C(=O)Nc1c(F)cccc1Cl)C(F)(F)F, the IC50 (MOLM-13) was 1.3 nM.
CCC(CC)C(=O)Nc1cc(O[C@@H](C)C(F)(F)F)c(C(=O)Nc2c(F)cccc2Cl)cc1F showed an IC50 (MOLM-13) of 53 nM.
In the case of C[C@H](Oc1cc(NC(=O)N2CCCC2CO)c(F)cc1C(=O)Nc1c(F)cccc1Cl)C(F)(F)F (mixture of isomers), the IC50 (MOLM-13) is reported as 1.5 nM, the half-life [2] is reported as 56 min and the half-life [3] is reported as 45 min.
Work on CCCC(=O)Nc1cc(O[C@@H](C)C(F)(F)F)c(C(=O)Nc2c(F)cccc2Cl)cc1F yielded an IC50 (MOLM-13) of 46 nM, a half-life [12] of less than 4 min and a half-life [13] of 31 min.
Compound C[C@H](Oc1cc(NC(=O)N2CC(CO)C2)c(F)cc1C(=O)Nc1c(F)cccc1Cl)C(F)(F)F has an IC50 (MOLM-13) of 430 nM, a half-life [2] of 142 min and a half-life [3] of 178 min.
With CCNC(=O)Nc1cc(O[C@@H](C)C(F)(F)F)c(C(=O)Nc2c(F)cccc2Cl)cc1F the IC50 (MOLM-13) was 53 nM.
Compound C[C@H](Oc1cc(NC(=O)N2CCC2CO)c(F)cc1C(=O)Nc1c(F)cccc1Cl)C(F)(F)F (mixture of isomers) has an IC50 (MOLM-13) of 1.6 nM, a half-life [2] of 28 min and a half-life [3] of 15 min.
For CCN(CC)C(=O)Nc1cc(O[C@@H](C)C(F)(F)F)c(C(=O)Nc2c(F)cccc2Cl)cc1F, the IC50 (MOLM-13) was 0.63 nM, the half-life [2] was 26 min and the half-life [3] was 12 min.
C[C@H](Oc1cc(NC(=O)N(C)C)c(F)cc1C(=O)Nc1c(F)cccc1Cl)C(F)(F)F gave an IC50 (MOLM-13) of 2 nM, a half-life [2] of 22 min and a half-life [3] of less than 4 min.
